Assay results published in patent publication US5776720A, “Assay reagent” (priority 1995, dated 1998).
Structures can show the parent of a compound that is named as a salt. Numbered stars: 1 amine (or outer) side, 2 acyl side, 3 side chain; on linkers, the order of the positions; unused ones are H or OH. Bridge positions count the residues as written; N and C are the ends. Peptide text beside a SMILES is read from it. I, II: the chains in the order shown. Rhodamine110 = O=C1OC2(c3ccc(N[*:1])cc3Oc3cc(N[*:2])ccc32)c2ccccc21

Columns and labels:
Type in all cases: cell-based, human
Conditions in all cases: normal donors
monocytes = assay: Normal leukocyte enzyme activity (Table 3A), monocytes; design: unit not given here
Source text: (§1) The measured fluorescence intensity can be converted from mean channel fluorescence (in peak or integrated mode) to MESF (molecules of equivalent soluble fluorochrome, Flow Cytometry Standards Corp. , San Juan, Puerto Rico) or International Units of hydrolysis per cell. A normal range of enzyme activity is established by assaying males and females in sufficient quantity to characterize the population levels statistically.
(§2) A normal in house adult donor pool was drawn, recording sex and determining that no known disease state was present at the time of sample draw. Criteria for rejecting samples included patients under medication, patients with infection or inflammation of any type, colds and flu as well as any known medical illness such as cancer, heart ailment and high blood pressure. A donor list of 75 patients has been developed and a mean and 2 sd range established. A subgroup of "super normals" was developed from this list by examining the 75 patients to determine which group falls closest to the mean for all enzymes in all cell types tested. These patients were used as the "wellness index" or best group of "normalcy" patients. If a study required the use of children or newborns then this same format was used to develop a data base for these age groups.

granulocytes = assay: Normal leukocyte enzyme activity (Table 3A), granulocytes; design: unit not given here
Source text: as §1, §2

erythrocytes = assay: Normal erythrocyte enzyme activity (Table 3B)
Method: A sample, consisting of whole blood (in EDTA, Heparin or ACD) or dissociated tissue or body fluids (synovial fluid) or cell culture media is obtained and stored in a manner so as not to decrease viability. The sample is washed sufficiently to remove plasma, media, body fluid, debris and extra-cellular enzymes. The wash media consists of a physiologically balanced buffered salt solution. The washed cells are incubated at 37° C. 50 μL of sample and 25 μL of substrate media are mixed together and allowed to incubate at 37° C. for a predetermined amount of time. At the end of the incubation period, the sample is then measured for fluorescence.
as §2

lymphocytes = assay: Normal leukocyte enzyme activity (Table 3A), lymphocytes; design: unit not given here
Source text: as §1, §2

Compound | NORMAL LEUKOCYTE ENZYME ACTIVITY, MONOS Mean (monocytes) | NORMAL LEUKOCYTE ENZYME ACTIVITY, GRANS Mean (granulocytes) | NORMAL E[…] ACTIVITY MEAN (erythrocytes) | NORMAL LEUKOCYTE ENZYME ACTIVITY, LYMPHS Mean (lymphocytes)
O=C1OC2(c3ccc(OC4O[C@H](CO)[C@@H](O)[C@H](O)[C@H]4O)cc3Oc3cc(OC4O[C@H](CO)[C@@H](O)[C@H](O)[C@H]4O)ccc32)c2ccccc21 (stereo partly drawn) [DIGLUC (FL)] | 1.89 | 0.45 | 0.110 | 0.23
CC(C)C[C@H](NC(=O)[C@@H]1CCCN1C(=O)CN)C(=O)NCC(=O)N1CCC[C@H]1C(=O)Nc1ccc2c(c1)Oc1cc(NC(=O)[C@@H]3CCCN3C(=O)CNC(=O)[C@H](CC(C)C)NC(=O)[C@@H]3CCCN3C(=O)CN)ccc1C21OC(=O)c2ccccc21 [GPLGP, (H--Gly--Pro--Leu--Gly--Pro)2 Rho 110.2TFA] (I: H-GPLGP / II: H-GPLGP; linker I:C-II:C via Rhodamine110) | 23.38 | 16.88 | 0.164 | 8.97
O=C1OC2(c3ccc(OP(=O)(O)O)cc3Oc3cc(OP(=O)(O)O)ccc32)c2ccccc21 [DPO4, (PO4)2 fluorescein] | 148.32 | 85.42 | 0.151 | 54.29
CC(=O)Oc1ccc2c(c1)Oc1cc(OC(C)=O)ccc1C21OC(=O)c2ccccc21 [FDA, fluorescein diacetate, reference compound] | – | 68.37 | 0.126 | 13.38
C[C@H](NC(=O)CNC(=O)[C@H](Cc1ccccc1)NC(=O)CN)C(=O)Nc1ccc2c(c1)Oc1cc(NC(=O)[C@H](C)NC(=O)CNC(=O)[C@H](Cc3ccccc3)NC(=O)CN)ccc1C21OC(=O)c2ccccc21 [GFGA, (Gly-Phe-Gly-Ala)2 Rho 110] (I: H-GFGA / II: H-GFGA; linker I:C-II:C via Rhodamine110) | 1.01 | – | 0.131 | –
CC(=O)Oc1ccc2c(c1)Oc1cc(OC(C)=O)ccc1C21OC(=O)c2ccccc21 [FDA--NAF, fluorescein diacetate, reference compound] | 93.36 | 81.99 | 0.136 | 17.98
CCCCC(=O)Oc1ccc2c(c1)Oc1cc(OC(=O)CCCC)ccc1C21OC(=O)c2ccccc21 [DIVAL 6.5, FL(valerate)2] | 184.51 | 92.81 | – | 33.13
CC(C)[C@H](N)C(=O)N[C@@H](CO)C(=O)Nc1ccc2c(c1)Oc1cc(NC(=O)[C@H](CO)NC(=O)[C@@H](N)C(C)C)ccc1C21OC(=O)c2ccccc21 [VS, (H--L--Val--Ser)2 Rho 110.2TFA] | 19.61 | 8.27 | – | 3.81
O=C(CCl)Oc1ccc2c(c1)Oc1cc(OC(=O)CCl)ccc1C21OC(=O)c2ccccc21 [CHLOAC, FL(chloroacetate)2] | 7.33 | 6.48 | – | 2.49
C[C@H](N)C(=O)Nc1ccc2c(c1)Oc1cc(NC(=O)[C@H](C)N)ccc1C21OC(=O)c2ccccc21 [ALA, (Ala)2 Rho 110] | 172.33 | 149.02 | – | 75.85
N=C(N)NCCC[C@H](N)C(=O)Nc1ccc2c(c1)Oc1cc(NC(=O)[C@@H](N)CCCNC(=N)N)ccc1C21OC(=O)c2ccccc21 (stereo partly drawn) [ARG, (H--L--Arg)2 Rho 110.4TFA] | 10.34 | 5.16 | – | 1.47
(carbobenzyloxycarbonyl-Gly-Pro)2 Rho 110 (modified) [Z--GP--M] | 119.81 | 130.62 | – | 53.74
CCCCCCC(=O)Oc1ccc2c(c1)Oc1cc(OC(=O)CCCCCC)ccc1C21OC(=O)c2ccccc21 [DIHEP 6.5, FL(heptanoate)2] | 32.25 | 18.57 | – | 9.17
C[C@H](NC(=O)[C@@H](N)CCCCN)C(=O)Nc1ccc2c(c1)Oc1cc(NC(=O)[C@H](C)NC(=O)[C@@H](N)CCCCN)ccc1C21OC(=O)c2ccccc21 [KA--M, (Lys-Ala)2 Rho 110] | 8.74 | 1.74 | – | 0.55
O=C1OC2(c3ccc(OC4O[C@H](CO)[C@H](O)[C@H](O)[C@H]4O)cc3Oc3cc(OC4O[C@H](CO)[C@H](O)[C@H](O)[C@H]4O)ccc32)c2ccccc21 (stereo partly drawn) [GALAC, (D-galactose)2 fluorescein] | 5.94 | 1.58 | – | 0.38
N[C@@H](CO)C(=O)Nc1ccc2c(c1)Oc1cc(NC(=O)[C@@H](N)CO)ccc1C21OC(=O)c2ccccc21 [SER, (H--L--Ser)2 Rho 110.2TFA] | 6.49 | 3.40 | – | 1.35
C[C@H](NC(=O)[C@@H](N)CCCCN)C(=O)Nc1ccc2c(c1)Oc1cc(NC(=O)[C@H](C)NC(=O)[C@@H](N)CCCCN)ccc1C21OC(=O)c2ccccc21 [KA, (Lys-Ala)2 Rho 110] | 39.35 | 29.15 | – | 11.47
O=C1OC2(c3ccc(NC(=O)[C@@H]4CCCN4)cc3Oc3cc(NC(=O)[C@@H]4CCCN4)ccc32)c2ccccc21 [PRO, (H--L--Pro)2 --Rho 110.2TFA] | 6.83 | 9.19 | – | 1.70
N[C@@H](CC(=O)O)C(=O)Nc1ccc2c(c1)Oc1cc(NC(=O)[C@@H](N)CC(=O)O)ccc1C21OC(=O)c2ccccc21 [ASP, (H--L--Asp)2 --Rho 110.2TFA] | 0.66 | 0.45 | – | 0.26
CCCCCCC(=O)Oc1ccc2c(c1)Oc1cc(OC(=O)CCCCCC)ccc1C21OC(=O)c2ccccc21 [DIHEP 7.5, FL(heptanoate)2] | 36.15 | 20.41 | – | 9.73
C[C@@H](O)[C@H](NC(=O)OCc1ccccc1)C(=O)N1CCC[C@H]1C(=O)Nc1ccc2c(c1)Oc1cc(NC(=O)[C@@H]3CCCN3C(=O)[C@@H](NC(=O)OCc3ccccc3)[C@@H](C)O)ccc1C21OC(=O)c2ccccc21 [Z--TP6.5, (carbobenzyloxycarbonyl-Thr-Pro)2 Rho 110 (pH 6.5)] | 49.69 | 58.05 | – | 21.97
CCCCCC(=O)Oc1ccc2c(c1)Oc1cc(OC(=O)CCCCC)ccc1C21OC(=O)c2ccccc21 [DIHEX 6.5, FL(hexanoate)2] | 72.87 | 33.84 | – | 15.10
CCCC(=O)Oc1ccc2c(c1)Oc1cc(OC(=O)CCC)ccc1C21OC(=O)c2ccccc21 [DIBUT 6.5, FL(butyrate)2] | 10.37 | 6.43 | – | 4.08
CC(=O)Oc1ccc2c(c1)Oc1cc(OC(C)=O)ccc1C21OC(=O)c2ccccc21 [DIACET 6.5, Fluorescein (acetate)2, reference compound] | 534.00 | 408.88 | – | 109.89
C[C@H](N)C(=O)N[C@@H](C)C(=O)Nc1ccc2c(c1)Oc1cc(NC(=O)[C@H](C)NC(=O)[C@H](C)N)ccc1C21OC(=O)c2ccccc21 [AA--TFA, (H--L--Ala--Ala)2 Rho 110.2TFA] | 158.31 | 154.81 | – | 56.95
CC(C)C[C@H](NC(=O)[C@@H](N)CC(C)C)C(=O)N[C@@H](CCCNC(=N)N)C(=O)Nc1ccc2c(c1)Oc1cc(NC(=O)[C@H](CCCNC(=N)N)NC(=O)[C@H](CC(C)C)NC(=O)[C@@H](N)CC(C)C)ccc1C21OC(=O)c2ccccc21 (stereo partly drawn) [LLR, (H--L Leu--Leu--Arg)2 Rho 110.4TFA] | 54.32 | 9.46 | – | 4.09
